Measured values taken from paper PMC11845477, “Exploring the principles behind antibiotics with limited resistance” (Nature Communications, 2025).

Columns and labels:
[1] = tested on: P. aeruginosa ATCC BAA-3107 (SEN) and P. aeruginosa LESB58 (MDR); assay: microbe, parasite or virus in culture; assay type: cell-based, Pseudomonas aeruginosa; conditions: for MIC: across three biological replicates
How it was run: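 Inoculum was 5 × 10^5 cells/mL in cation-adjusted MHB2 (SCH79797 excepted) across 11–16-step dilution series in duplicate. Relative MIC divides evolved-strain MIC by ancestor MIC.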

[2] = tested on: E. coli ATCC 25922 (SEN) and E. coli NCTC13846 (MDR); assay: Adaptive laboratory evolution (ALE), relative MIC of evolved lines; assay type: cell-based, Escherichia coli; conditions: for Relative MIC (log10): EC-SEN (Escherichia coli ATCC 25922)
How it was run: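 Ten parallel populations per antibiotic–ancestor pair were evolved in MHB at 37 °C, starting near 50% growth-inhibiting drug. Every 72 h they were passaged into 0.5–2.5× increasing concentrations, keeping the highest-drug well with OD600 > 0.2.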

[3] = EC-SEN (E. coli ATCC 25922), evolved line 1 of the given antibiotic
[4] = EC-SEN (E. coli ATCC 25922), evolved line 3 of the given antibiotic
[5] = EC-SEN (E. coli ATCC 25922), evolved line 7 of the given antibiotic
[6] = EC-SEN (E. coli ATCC 25922), evolved line 9 of the given antibiotic

C[C@@H]1CN2c3c(cc4c(N5C(=O)OC[C@@H]5C)noc4c3F)CC3(C(=O)NC(=O)NC3=O)[C@H]2[C@H](C)O1 [Zoliflodacin]
8: Relative MIC ([2]; EC-SEN (E. coli ATCC 25922), evolved line 2 vs ancestor) | Relative MIC ([2]; Escherichia coli ATCC 25922 (EC-SEN), evolved line 2)
> 32 µg/mL: MIC ([1]; Pseudomonas aeruginosa, ATCCBAA3107, Pseudomonas aeruginosa LESB 58 (PA-MDR))
32: Relative MIC ([2]; EC-SEN (E. coli ATCC 25922), evolved line 6 vs ancestor) | Relative MIC ([2]; Escherichia coli ATCC 25922 (EC-SEN), evolved line 6)
256: Relative MIC ([2]; EC-SEN (E. coli ATCC 25922), evolved line 5 vs ancestor) | Relative MIC ([2]; Escherichia coli ATCC 25922 (EC-SEN), evolved line 5)
128: Relative MIC ([2]; EC-SEN (E. coli ATCC 25922), evolved line 3 vs ancestor) | Relative MIC ([2]; EC-SEN (E. coli ATCC 25922), evolved line 4 vs ancestor) | Relative MIC ([2]; EC-SEN (E. coli ATCC 25922), evolved line 8 vs ancestor) | Relative MIC ([2]; EC-SEN (E. coli ATCC 25922), evolved line 10 vs ancestor) | Relative MIC ([2]; Escherichia coli ATCC 25922 (EC-SEN), evolved line 3) | Relative MIC ([2]; Escherichia coli ATCC 25922 (EC-SEN), evolved line 4) | Relative MIC ([2]; Escherichia coli ATCC 25922 (EC-SEN), evolved line 8) | Relative MIC ([2]; Escherichia coli ATCC 25922 (EC-SEN), evolved line 10)
8 µg/mL: MIC ([1]; Pseudomonas aeruginosa, ATCCBAA3107, Pseudomonas aeruginosa ATCC BAA-3107 (PA-SEN))
2.107 log10: Relative MIC (log10) ([2]; evolved line 3) | Relative MIC (log10) ([2]; evolved line 4) | Relative MIC (log10) ([2]; evolved line 8) | Relative MIC (log10) ([2]; evolved line 10)
64: Relative MIC ([2]; EC-SEN (E. coli ATCC 25922), evolved line 1 vs ancestor) | Relative MIC ([2]; EC-SEN (E. coli ATCC 25922), evolved line 7 vs ancestor) | Relative MIC ([2]; EC-SEN (E. coli ATCC 25922), evolved line 9 vs ancestor) | Relative MIC ([2]; Escherichia coli ATCC 25922 (EC-SEN), evolved line 1) | Relative MIC ([2]; Escherichia coli ATCC 25922 (EC-SEN), evolved line 7) | Relative MIC ([2]; Escherichia coli ATCC 25922 (EC-SEN), evolved line 9)
2.408 log10: Relative MIC (log10) ([2]; evolved line 5)

Tridecaptin M152-P3
32 µg/mL: MIC ([1]; Pseudomonas aeruginosa ATCC BAA-3107 (PA-SEN)) | MIC of evolved line [2, 3] | MIC of evolved line [2, 4] | MIC of evolved line ([2]; EC-SEN (E. coli ATCC 25922), evolved line 4 of the given antibiotic) | MIC of evolved line ([2]; EC-SEN (E. coli ATCC 25922), evolved line 6 of the given antibiotic) | MIC of evolved line [2, 5] | MIC of evolved line ([2]; EC-SEN (E. coli ATCC 25922), evolved line 8 of the given antibiotic) | MIC of evolved line [2, 6]
64 µg/mL: MIC of evolved line ([2]; EC-SEN (E. coli ATCC 25922), evolved line 2 of the given antibiotic) | MIC of evolved line ([2]; EC-SEN (E. coli ATCC 25922), evolved line 10 of the given antibiotic)
>32 µg/mL: MIC ([1]; Pseudomonas aeruginosa LESB 58 (PA-MDR))

polymyxin-B
32 µg/mL: MIC of evolved line ([2]; EC-MDR NCTC 13846, evolved line 8)
64 µg/mL: MIC of evolved line ([2]; EC-MDR NCTC 13846, evolved line 3) | MIC of evolved line ([2]; EC-MDR NCTC 13846, evolved line 5) | MIC of evolved line ([2]; EC-MDR NCTC 13846, evolved line 6) | MIC of evolved line ([2]; EC-MDR NCTC 13846, evolved line 9) | MIC of evolved line ([2]; EC-MDR NCTC 13846, evolved line 10) | MIC of evolved line [2, 3] | MIC of evolved line [2, 4] | MIC of evolved line [2, 5] | MIC of evolved line [2, 6]
1 µg/mL: MIC of ancestor ([1]; P. aeruginosa ATCC BAA 3107 (PA-SEN), ancestor strain, sheet fig 2a) | MIC of ancestor ([1]; ancestor PA-SEN (Pseudomonas aeruginosa ATCC BAA 3107))
2 µg/mL: MIC of ancestor ([1]; P. aeruginosa LESB 58 (PA-MDR), ancestor strain, sheet fig 2a) | MIC of ancestor ([1]; Pseudomonas aeruginosa LESB 58 (PA-MDR), ancestor) | MIC of ancestor ([1]; ancestor PA-MDR (Pseudomonas aeruginosa LESB 58))
